Read-outs that look alike come from different tables or passages of the source.
Columns and labels:
aorta of the rat [1] = assay: Relaxation of rat aortic rings contracted by potassium depolarisation (KCl); type: cell-based; settings: rat aorta rings without endothelium
Method: (§1) Male Wistar rats (325-375 g) are anaesthetised i.p. using sodium pentobarbital (30 mg/kg). The thoracic aorta and the mesenteric portal vein are removed. The aorta is dissected into rings 3 mm long and the endothelium is removed mechanically.
(§2) The organs are placed in a 20 ml thermostatically controlled vessel containing a physiological solution composed of (mM): NaCl 112; KCl 5; KH2 PO4 1; MgSO4 1.2; CaCl2 2.5; NaHCO3 25; glucose 11.5; EDTA 0.1; pH: 7.4; 37° C.; 95% O2 +5% CO2.
(§3) The initial force applied is 2 g in the case of the aorta and 0.5 g in the case of the portal vein. The variations in force are measured by a STATHAM sensor connected to a transducer amplifier (GOULD) and are monitored continuously on a GOULD 2400 graphic recorder.
(§4) The experimental protocols are as follows: After a stabilisation period of 90 minutes, the aortic rings are subjected to various tests:
potassium depolarisation:
The preparations are exposed to a 30 mM or 80 mM KCl (and 87 and 37 mM NaCl, respectively) hyperpotassium medium; after 30 minutes' stabilisation of contraction, cumulative concentrations of the product to be tested are added every 15 minutes. The relaxation values obtained allow the IC50 s to be calculated.
(§5) The products are used in a form dissolved in water or a suitable solvent.
(§6) The concentrations expressed refer to the final concentrations in terms of base in the isolated organ baths.

[2] = test system: spontaneously hypertensive rat (SHR); assay: Arterial pressure in the conscious spontaneously hypertensive rat (SHR), oral; type: in vivo
Method: The study is carried out on SHR male rats (Charles River) weighing from 260 g to 330 g and aged from 18 to 20 weeks. A polyethylene catheter is positioned at the level of the abdominal aorta and tunnelised at the level of the neck under anaesthesia (ketamine hydrochloride 150 mg/kg intraperitoneally). The animals, placed in movement-restraining cages, are tested in the conscious state at least 48 hours after intervention. The arterial pressure, measured by a STATHAM P23 pressure sensor connected to the abdominal catheter, is registered on a GOULD 2400 recorder. […] The doses administered are expressed in mg/kg of base.
The results obtained with a certain number of representative products of the invention and a reference product, CROMAKALIM, are grouped in the following Table. The variations in systolic and diastolic arterial pressure (PAS and PAD) presented at the most significant times after treatment are expressed as percentage variation with respect to the control values.

guinea pig = assay: Bronchospasm produced by a histamine aerosol at 4%, compound i.v.; type: in vivo; settings: 0.30 mg/kg i.v.
Method: The bronchodilating activity has been studied in the guinea pig by the method of H. KONZETT and R. ROSSLER, Arch. Exp. Path. U. Pharm. 195, 71 (1940).
For example, the bronchospasm produced in the guinea pig by a histamine aerosol et 4% is inhibited of 96% by the compound of Example 1 B form, at the dose of 0.30 mg/kg i.v., and of 100% by the compound of Example 24 B form, at the dose of 0.35 mg/kg i.v.

[3] = test system: conscious renally hypertensive dog; assay: Arterial pressure in the conscious renally hypertensive dog; type: in vivo; settings: gastric intubation, 0.1 mg/kg
Method: Mongrel dogs weighing from 20 to 25 kg are used. A silastic catheter positioned under anaesthesia (sodium pentobarbital 30 mg/kg i.v.) at the level of the abdominal aorta and left over a prolonged period permits the later measurement of the arterial pressure in the conscious animals. Arterial hypertension is induced by a second intervention under anaesthesia consisting in a constriction of the left renal artery using a clip, which reduces its rate of flow by approximately 70%, the left kidney is enveloped in a latex capsule and the contralateral kidney is left in place.
The systolic and diastolic arterial pressures (PAS and PAD) are measured using a STATHAM P23 pressure sensor connected to the silastic catheter and linked to a GOULD pressure amplifier. The products are tested on the animals, which have become hypertensive, in the conscious state, at least one week after the second intervention. The arterial pressure is monitored continuously on an ES1000 GOULD recorder until 7 hours have elapsed after the treatment and then until 24 hours have elapsed.
The products to be tested are administered via the digestive system, after gastric intubation, in a form dissolved in water or a suitable solvent. The doses administered are expressed in mg of base with respect to body weight.
The representative products of the invention were compared with the reference product (CROMAKALIM). The variations in the systolic and diastolic arterial pressures (PAS and PAD), presented at the most significant times after treatment, are expressed as percentage variation with respect to the control values.

aorta of the rat [4] = assay: Reactivity of rat aortic rings to 4-aminopyridine (4 AP); type: cell-based; settings: 4 AP 5 mM
Method: as §1, §2, §3, §4
reactivity to 4-aminopyridine (4 AP)
The product to be tested, at a given concentration, or its solvent, is incubated in the normal physiological solution 15 minutes before the addition of the 4 AP (5 mM).
The maximum amplitudes of the responses to the 4 AP in the presence of the product or the solvent are compared.
as §5, §6

anaesthetised dog = assay: Haemodynamic study in the anaesthetised dog (vascular resistances), i.v.; type: in vivo; settings: 10 μg/kg
Method: A complete haemodynamic study was carried out on mongrel dogs weighing from 25 to 30 kg, which were anaesthetised with sodium pentobarbital 30 mg/kg i.v., intubated and ventilated and subjected to a thoracotomy at the 5th left intercostal space. The measurement of the […] is carried out using electromagnetic rings positioned at the level of the ascending aorta and the circumflex branch of the left coronary artery, respectively, and connected to GOULD SP 2202 electromagnetic flow meters. The aortic pressure is measured by a MILLAR probe introduced via the femoral artery.
The total peripheral vascular resistance values (TPR) and the mean coronary vascular resistance values (CVRM) are calculated by the ratio between the mean aortic pressure and the mean cardiac output and the mean coronary output, respectively. The products tested were injected via the femoral vein in a form dissolved in water or a suitable solvent.
The evolution of the vascular resistances, expressed as percentage variation with respect to the control values, is presented as a function of time in the following Table.

SMILES: CC1(C)Oc2ccc(C#N)cc2C(N2C(=O)CC[C@H]2CO)C1O (single isomer, unassigned) [Example 1 form B, 3R,4S- or 3S,4R-trans-2,2-dimethyl-3-hydroxy-4-(2-oxo-5S-hydroxymethyl-1-pyrrolidinyl)-6-cyanochroman]
- IC50 (aorta of the rat [1]; 30 mM KCl, listed as Ex. 1 Form B, read-out: IC50 (M) KCl 30 mM): 3.4e-07 M
- IC50 (aorta of the rat [1]; 80 mM KCl, read-out: IC50 (M) KCl 80 mM): > 0.0001 M
- Variation (%) of PAD after treatment ([2]; 0.3 mg/kg, 1 H): -36 ± 4%
- Variation (%) of PAS after treatment ([2]; 0.3 mg/kg, 1 H): -27 ± 4%
- Variation (%) of PAD after treatment ([2]; 0.3 mg/kg, 3 H): -35 ± 4%
- Variation (%) of PAS after treatment ([2]; 0.3 mg/kg, 3 H): -25 ± 3%
- Variation (%) of PAD after treatment ([2]; 0.3 mg/kg, 6 H): -40 ± 4%
- Variation (%) of PAD after treatment ([2]; 0.3 mg/kg, 30 min): -34 ± 6%
- Variation (%) of PAS after treatment ([2]; 0.3 mg/kg, 30 min): -27 ± 5%
- Variation (%) of PAD after treatment ([2]; 1.0 mg/kg, 1 H): -54 ± 2%
- Variation (%) of PAS after treatment ([2]; 1.0 mg/kg, 1 H): -44 ± 1%
- Variation (%) of PAD after treatment ([2]; 1.0 mg/kg, 3 H): -46 ± 6%
- Variation (%) of PAS after treatment ([2]; 1.0 mg/kg, 3 H): -40 ± 2%
- Variation (%) of PAD after treatment ([2]; 1.0 mg/kg, 6 H): -46 ± 4%
- Variation (%) of PAS after treatment ([2]; 1.0 mg/kg, 6 H): -36 ± 3%
- Variation (%) of PAD after treatment ([2]; 1.0 mg/kg, 30 min): -48 ± 5%
- Variation (%) of PAS after treatment ([2]; 1.0 mg/kg, 30 min): -42 ± 2%
- Inhibition of the bronchospasm produced by a histamine aerosol at 4% (guinea pig): 96%
- Variation (%) of PAD after treatment ([3]; 1 H): +5%
- Variation (%) of PAS after treatment ([3]; 1 H): +2%
- Variation (%) of PAD after treatment ([3]; 3 H): -50%
- Variation (%) of PAS after treatment ([3]; 3 H): -55%
- Variation (%) of PAD after treatment ([3]; 7 H): -68%
- Variation (%) of PAS after treatment ([3]; 7 H): -76%
- Variation (%) of PAD after treatment ([3]; 24 H): -27%
- Variation (%) of PAS after treatment ([3]; 24 H): -24%
- Variation (%) of PAD after treatment ([3]; 30 min): 0%
- Variation (%) of PAS after treatment ([3]; 30 min): 0%
- % inhibition of the response to 4AP (aorta of the rat [4]; product 3 × 10^-6 M): 18%
- % inhibition of the response to 4AP (aorta of the rat [4]; product 10^-5 M, listed as Ex. 1 Form B): 77%
- Variation (%) of CVRM after treatment (anaesthetised dog; 1 min): -69.4%
- Variation (%) of TPR after treatment (anaesthetised dog; 1 min): -45.9%
- Variation (%) of CVRM after treatment (anaesthetised dog; 10 min): -62.0%
- Variation (%) of TPR after treatment (anaesthetised dog; 10 min): -35.1%
- Variation (%) of CVRM after treatment (anaesthetised dog; 30 min): -43.7%
- Variation (%) of TPR after treatment (anaesthetised dog; 30 min): -35.1%

Reference: patent publication US4999372A, “New aminochromanol compounds” (ADIR et Compagnie, priority 1988, dated 1991)
